Data on three sequences can be found in paper PMC7041945, “Misfolded proteins bind and activate death receptor 5 to trigger apoptosis during unresolved endoplasmic reticulum stress” (eLife, 2020).

No end group written: not given here.

One assay has as its system HCT116 cells. As to the kind of experiment: Annexin V (and SytoxBlue) flow cytometry for apoptosis. It is filed as cell-based, Homo sapiens. To be noted: transfected 24 hr; no z-VAD. As for the experimental part:
Cells seeded in a 6-well plate were transfected with the specified plasmid for 24 hr and harvested via trypsinization in complete media to allow a 30 min recovery at 37°C. The samples were then centrifuged at 500xg for 5 min and resuspended In 150 μl of a 1:20 dilution of Annexin V-AlexaFluor 647 conjugate (Thermo Scientific #A23204). Samples were transferred to a 96-well U-bottom plate and incubated in the dark for 15 min at RT. The distribution of apoptotic cells was determined by flow cytometry on a BD LSR II.
A general note: A flow cytometer gives signals particle by particle.

Assay [1] deals with DR5 / ERGIC53 / giantin in HCT116 cells. The experiment in a line: Immunofluorescence co-localization (Pearson's correlation per cell). It is filed as cell-based, Homo sapiens. Particulars: Mean ± SEM. As for the experimental part: HCT116 were seeded at 25000 cells per well in an 8-well glass-bottom μSlide (Ibidi 80827) pre-coated with Collagen IV (Sigma-Aldrich C6745, 0.03 mg/ml in PBS incubated for 30 min at RT, and then rinsed off with PBS x 3) in growth media 18 hr prior to transfection (see above for protocol). 24 hr post-transfection, the cells were fixed using 4% paraformaldehyde (PFA, Electron Microscopy Sciences) or methanol, depending on the antibody combination used for immunostaining (see table below). Samples were protected from light after fixation to preserve GFP fluorescence.
For fixation with 4% PFA, 32% PFA was added directly to the well in growth media for a 1:8 dilution and incubated for 10–15 min at RT. Cells were then permeabilized with PHEM buffer (60 mM PIPES, 25 mM HEPES, 10 mM EGTA, 2 mM MgCl2-hexahydrate, pH 6.9) containing 0.1% Triton-X100 for 10 min at RT for three washes.
For fixation with methanol, media was removed and cells were washed with cold PBS. Then methanol (pre-cooled at −20°C) was added to the well and incubated at −20°C for 3–4 min. The methanol was promptly aspirated and replaced with PHEM buffer (without Triton X-100), followed by two more 10 min washes with PHEM at RT.
To block against non-specific antibody interactions, cells were rinsed in PHEM (without 0.1% Triton X-100) and then incubated with PHEM containing 2% normal goat serum (Jackson Immunoresearch Laboratories, 005-000-121) for 1 hr at RT. Primary antibodies were incubated in blocking solution overnight at 4°C at the dilution noted in the table above. Cells were then washed with PHEM buffer for 10 min at RT x three and incubated with secondary antibodies, anti-mouse-AlexaFluor546 (Invitrogen A11030) and anti-rabbit-AlexaFluor633 (Invitrogen A21071), diluted 1:1000 in PHEM with 2% normal goat serum. (Secondary antibody solutions were centrifuged at 15000xg for 20 mins at 4°C to remove aggregates prior to incubating with cell samples.) After a 1 hr incubation at RT, cells were washed with PHEM buffer once, then incubated with PHEM buffer containing nuclear stain (DAPI, Molecular Probes, Eugene, OR, D-1306, 5 μg/mL), and finally rinsed with PHEM buffer twice before imaging.
Samples were imaged on a spinning disk confocal with Yokogawa CSUX A1 scan head, Andor iXon EMCCD camera, and 40x Plan Apo air Objective NA 0.95 or 100x ApoTIRF objective NA 1.49 (Nikon).
From the 405 nm channel, cell nuclei were identified as primary objects using maximum correlation thresholding (MCT) and shape to distinguish clumped objects. Secondary objects were outlined using propagation from the nuclei (DAPI) after applying MCT from the 488 nm, 561 nm, and 633 nm channels. Tertiary objects for each cell was identified as the mask of each nucleus subtracted from the mask of its corresponding secondary object in each channel, yielding masks for intracellular GFP-tagged protein from the 488 nm channel, for intracellular DR5 from the 561 nm channel, and for the organelle marker in the 633 nm channel. For overlap between DR5 and MPZ/RHO-GFP, Pearson’s correlation coefficients were calculated within the MPZ/RHO mask for each cell to filter out untransfected cells. For overlap between DR5/MPZ and organelle markers, Pearson’s correlation coefficients were calculated within tertiary objects for the organelle marker in GFP+ cells. Statistical analyses for all data sets were performed using GraphPad Prism 6.0.

Assay [2] deals with T1, DR5L ECD (Homo sapiens, UniProt O14763).
T1 construct: Gp67 (glycoprotein) signal peptide (N); made in house; host or cells: SF21 insect cells (baculovirus, Bac-to-Bac)
T1 sequence (O14763 72-213): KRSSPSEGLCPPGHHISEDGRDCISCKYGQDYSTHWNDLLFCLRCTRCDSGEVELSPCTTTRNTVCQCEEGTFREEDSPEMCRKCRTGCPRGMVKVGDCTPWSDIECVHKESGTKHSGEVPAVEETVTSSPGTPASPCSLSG
As to the kind of experiment: Fluorescence quenching of AlexaFluor647-DR5L ECD. It is filed as binding. As for the experimental part:
The pFastBac HTB constructs were recombined into bacmid DNA using the Bac-to-Bac baculovirus expression system according to manufacturer’s protocols (Life Technologies).
Recombinant DR5 and TNFR1 ECD were labeled with AlexaFluor647 NHS Ester (Succinimidyl Ester) (Life Technologies # A37573) in a 3:1 dye:protein molar ratio in 30 mM HEPES pH 7.2, 150 mM NaCl, 1% DMF overnight at 4°C protected from light. The labeled proteins were re-loaded onto a SuperDex200 10/300 GL column to remove the excess dye, yielding labeling efficiencies of 59% and 49% for DR5 ECD and TNFR1 ECD, respectively. […]
To set up reactions, the unlabeled peptide titration (10 μl each) was made from a two-fold dilution series of the highest peptide concentration assayed. […] Samples were incubated for 30 min at RT protected from light before measuring fluorescence.
Samples were then loaded by capillary action onto premium capillaries (Nanotemper Technologies, cat. #MO-K025). Fluorescence was measured on a Monolith NT.115 Instrument (NanoTemper Technologies, Germany) using the capillary scan function at 25°C.
The half-maximum binding constant (K1/2) and Hill coefficient were determined by fitting the data points on Prism 6.0 to the model equation: Y = Bmax*X^h/(K1/2^h + X^h), where Y is the % quenching, X is the concentration of peptide, Bmax is the maximum % quenching, and h is the Hill slope.

Assay [3] addresses T1, DR5L ECD. As to the kind of experiment: Size exclusion chromatography of DR5 ECD and peptide complex. The format is biochemical. Particulars: 25 μM DR5L ECD; 100 μM fluorescein-conjugated peptide; overnight 4°C. As for the experimental part:
The specified concentration of protein and peptide were incubated overnight at 4°C. The following day, 200 ul of each sample was loaded onto a SuperDex200 10/300 GL column equilibrated with 30 mM HEPES pH 7.2, 150 mM NaCl at a flow rate of 0.5 ml/min. Fractions were collected in 1 ml aliquots.
For subsequent analysis of each fraction by SDS-PAGE, 1 ml fractions were concentrated to 50 μl using a 3 kDa MW cutoff and loaded onto a gel. The fluorescein-labeled peptide was visualized using the fluorescence detection mode on a Typhoon 9400 Variable Mode Imager (GE Healthcare). Protein was visualized by staining with Coomassie.

Where [4] appears, read: HCT116, 24 hr post-transfection.

In the case of “FTWREQPEGGRDAISIFHEA [MPZ-ecto peptide^Tyr→Glu-eGFP, expressed GFP-tagged construct with Tyr → Glu mutations in the MPZ-ecto peptide]”, in the assay on HCT116 cells, the “Annexin V +, Sytox Blue + cells” value is 5.66% of cells; the “Annexin V +, Sytox Blue - cells” value is 3.64% of cells; the “Annexin V -, Sytox Blue - cells” value was 90.3% of cells. Also, in assay [1] (setting [4]), the “Pearson's correlation per cell of GFP-tagged peptide with DR5” value worked out at 0.15 ± 0.03 and the “Pearson's correlation per cell of GFP-tagged peptide with ERGIC” value is listed as 0.22 ± 0.05. In addition, the “Pearson's correlation per cell between DR5 and ERGIC” value in assay [1] (HCT116 expressing GFP-tagged peptide, 24 hr) was determined as 0.44 ± 0.04.
FTWREQPEGGRDAISIFHEA [MPZ-ecto^Tyr→Glu]: the “fluorescence quenching of AlexaFluor647-DR5L ECD” value at DR5L ECD [2] (increasing peptide, 200 nM ECD, N = 3) is “quenching was not observed”. The “co-elution / oligomerization of DR5 ECD by size exclusion” value on DR5L ECD [3] is given as “did not co-migrate with or induce the oligomerization of DR5 ECD”.
For the sequence FTWRYQPEGGRDAISIFHYA [MPZ-ecto], on DR5L ECD [2] (AlexaFluor647-DR5L ECD 200 nM, 20 mM HEPES pH 7.2, 100 mM KOAc, 0.1% Tween-20, 30 min RT, read at 25°C, N = 3, ± SD, read-out: K1/2 (half-maximum binding constant, apparent binding affinity)), the Kd was 109 ± 11 µM.
